{"source": "patent US20010048926A1", "about": "“SYNTHETIC PEPTIDE VACCINES FOR DENTAL CARIES” (priority 1992, published 2001)", "key": {"S. sobrinus GTF": {"test_system": "S. sobrinus GTF", "experiment": "Antibody inhibition of glucan synthesis (filter assay, 14C glucose incorporation into water-insoluble glucan)", "type": "biochemical, S. sobrinus strain 6715", "description": "Glucosyltransferases: Glucosyltransferases (GTF) from S. sobrinus strain 6715 were purified from culture supernatants after bacterial growth in glucose-containing defined media, as described in Taubman et al. (J. Oral Pathol. 17:466-470 (1988)). Enzymes were separated from other culture supernatant proteins by affinity chromatography on Sephadex G-100 (Pharmacia Fine Chemicals), using 6M guanidine HCl as the eluting solvent. GTFs were then obtained from the guanidine HCl eluate by FPLC chromatography on Superose 6 (Pharmacia) using 6M guanidine for elution. GTF preparations contained a mixture of GTF-I, GTF-Sd, and GTF-Si.\nAntibody Inhibition of Glucan Synthesis: Selected rat sera were evaluated for their ability to inhibit glucan synthesis catalyzed by S. sobrinus GTF, using a filter assay. Ten μl volumes of sera (1:100 dilutions in 0.02M sodium phosphate buffered saline and 0.02% sodium azide [PBSA], pH 6.5) were preincubated with the respective GTF for 1 hour at 37° C. in a total volume of 0.04 ml PBSA. Then 1.7 mg sucrose, 44 nCi of [^14C-glucose]-sucrose (approximately 100,000 cpm) were added in 0.2 ml PESA in the presence of 37 μg of dextran T10 (Pharmacia). Incubation proceeded for 18 hours at 37° C., after which water-insoluble glucan was collected on Whatman GF/F glass fiber filters, washed with PBSA, and radioactivity determined as described in Smith et al. (Infect. Immunity 62:5470-5476 (1994))."}, "[1]": {"test_system": "inducing peptide construct", "experiment": "ELISA of salivary IgA antibody to the inducing (homologous) peptide construct in immunized rats", "type": "in vivo, Sprague Dawley rats", "settings": "for rats with significant levels of salivary IgA antibody: GGY- and AND-injected rats counted together; for Salivary IgA antibody levels to GGY: pre-infection saliva", "method": "(§1) Immunogenicity of Peptides: Sprague Dawley CD strain 43 day-old male rats (Charles River Laboratories) were used for injection. Six groups of 4-5 rats were injected subcutaneously in the vicinity of the salivary glands with 50 μg each of GGY, AND, SAND or CAT peptide constructs, 10 μg of GTF, or sham-immunized with buffer alone. The initial injection included complete Freund adjuvant (CFA; Difco); two subsequent injections at 21-day intervals included incomplete Freund adjuvant. Animals were bled prior to injection and 14-21 days after each injection. Serum from coagulated and centrifuged blood was stored frozen at −20° C. until use.\nELISA: Serum IgG and salivary IgA antibodies were tested by enzyme-linked immunosorbent assay (ELISA). Polystyrene microtiter plates (Flow Laboratories) were coated with […] of each peptide construct or 0.5 μg of S. sobrinus GTF. Antibody activity was then measured by incubation with 1:100 to 1:10^6 dilutions of sera, or 1:4 to 1:32 dilutions of saliva. Plates were then developed for IgG antibody rabbit anti-rat IgG followed in sequence by alkaline phosphatase goat anti-rabbit IgG (Biosource Inc.) and p-nitrophenylphosphate (Sigma). A mouse monoclonal reagent to rat α chain (Zymed, South San Francisco, Calif.) was used with biotinylated goat anti-mouse IgG (TAGO, Inc., Burlingame, Calif.) and avidin-alkaline phosphatase (Cappel) to reveal levels of salivary IgA antibody to peptides. Reactivity was recorded as absorbance (A405 nm) in a micro plate reader (Biotek Instruments). Data are reported as absorbance (A405 nm), reciprocal titer, or as ELISA units (EU) which were calculated relative to the levels of appropriate reference sera or salivas from Sprague Dawley rats thrice immunized with the respective peptide construct. Dilutions of 1:12,800 and 1:6,400 (A405 nm approximately 1.0) were considered 100 EU for serum IgG to the GGY and AND constructs, respectively. Dilutions of 1:32 were considered 100 EU for salivary IgA to both GGY and AND constructs.\nTwo experiments were performed. Groups (n=11-12) of 23-26 day-old rats were subcutaneously (sc) injected in the salivary gland vicinity with (experiment 1) GGY (50 μg), AND (50 μg) or GTF(10 μg), or phosphate buffered saline (control animals), or (experiment 2) GGY (50 ;μg) or PBS. Each antigen was incorporated with complete Freund adjuvant in both experiments. Eight (experiment 1) or 14 (experiment 2) days later, rats were reinjected with PBS or with the same antigen and dose in incomplete Freund adjuvant. Six (experiment 1) or 12 (experiment 2) days after the second injection, animals were bled from the tail vein, and saliva was collected after injection of pilocarpine (1.0 mg/100 g body weight). Fourteen (experiment 1) or 11 (experiment 2) days after the second injection, all rats were orally infected with approximately 10^8 S. mutans for 3 consecutive days. Both experiments were terminated 63 days after initial infection.\nTwo experiments were performed to measure the effect of immunization with the eight-branched GGY and AND peptide constructs on experimental dental caries in the Sprague-Dawley rat. In the first experiment, groups of rats were immunized with GGY or AND peptide constructs. In the second experiment groups of rats were immunized only with the GGY peptide construct. Pre-infection sera and salivas were collected for antibody measurement in 39 day old rats in experiment 1 (6 days after the second injection) and 51 day old rats in experiment 2 (12 days after the second injection). In the GGY-immunized rat groups, IgG antibody levels to GGY (experiment 1=21.9+17.8 EU; experiment 2=108.0±4.0 EU) were elevated above those of the sham-immunized groups (experiment 1=1.7±0.2 EU; experiment 2=4.0±3.0 EU) in both experiments and reached statistical significance (p<0.002) in experiment 2."}, "AND peptide construct": {"target": "T1, AND peptide construct (Streptococcus mutans serotype c, UniProt P08987)", "T1 construct": "GGY and AND were 19-mer peptides; purchased Applied Diagnostics, Foster City, Calif; host or cells: chemical solid phase synthesis", "experiment": "Cross-reactivity ELISA, plates coated with AND peptide construct", "type": "binding", "settings": "day 63 sera; FIG. 4", "method": "as §1\nELISA: Serum IgG and salivary IgA antibodies were tested by enzyme-linked immunosorbent assay (ELISA). Polystyrene microtiter plates (Flow Laboratories) were coated with […] of each peptide construct or 0.5 μg of S. sobrinus GTF. Antibody activity was then measured by incubation with 1:100 to 1:10^6 dilutions of sera, or 1:4 to 1:32 dilutions of saliva. […] Reactivity was recorded as absorbance (A405 nm) in a micro plate reader (Biotek Instruments). Data are reported as absorbance (A405 nm), reciprocal titer, or as ELISA units (EU) which were calculated relative to the levels of appropriate reference sera or salivas from Sprague Dawley rats thrice immunized with the respective peptide construct. […]"}}, "data": [{"sequence": "GGYEFLLANDVDNSNPVVQ", "values": [{"measurement": "inhibition of formation of water-insoluble glucan from sucrose by S. sobrinus GTF (in words)", "setting": "S. sobrinus GTF; 63 day sera from injected rats, AND p<0.01, FIG. 5", "result": "more variable"}, {"measurement": "inhibition of GTF activity", "setting": "S. sobrinus GTF; one rat serum, 63 day, relative to mean of sham sera", "result": 35, "unit": "%"}, {"measurement": "rats with significant levels of salivary IgA antibody", "setting": "[1]; day 21 (one injection)", "result": "7/9"}, {"measurement": "rats with significant levels of salivary IgA antibody", "setting": "[1]; day 63 (three injections)", "result": "8/9"}, {"measurement": "Salivary IgA antibody levels to GGY", "setting": "[1]; protection experiment 1, 39 day old rats", "result": "5.0±2.0", "unit": "EU"}, {"measurement": "Salivary IgA antibody levels to GGY", "setting": "[1]; protection experiment 2, 51 day old rats", "result": "11.7±4.8", "unit": "EU"}, {"measurement": "reaction of serum IgG antibody with the AND peptide construct", "setting": "AND peptide construct", "result": "significant reaction"}]}]}
